≈ marks a conversion by molar mass, not a printed value.
What was measured:
[1] = system: Saccharomyces cerevisiae ATCC 9763; experiment: Fungal growth inhibition, S. cerevisiae ATCC 9763; format: cell-based; conditions: ATCC9763, MIC defined as 50% growth inhibition, 24 h, n = 3–6
From the text: (§1) Fungal isolates were purchased from American Type Culture Collection, except for C. glabrata strain Cg003, which was kindly provided by Julius Subik, Comenius University in Bratislava, Slovak Republic. Cg003 is a clinical isolate, characterized to be resistant to fluconazole and itraconazole due to overexpression of the multidrug resistance efflux pumps Cdr1p and Cdr2p. Saccharomyces cerevisiae (ATCC 9763), Candida albicans (ATCC 90028), Candida albicans (SC5314), Candida glabrata (ATCC 90030), Candida glabrata (Cg003) and Candida krusei (ATCC 6258) were grown in Sabouraud broth (40 g/L D-glucose, 10 g/L peptone, pH 5.6) or YPD (10 g/L yeast extract, 20 g/L Bacto-peptone, 20 g/L glucose) medium to mid log phase, aliquoted into 20% (v/v) glycerol and cryopreserved as stocks at -80°C. For each growth assay, cells from these stocks were diluted in sterile water to OD600 = 0.025, which corresponds to a final starting inoculum of 0.5–2.5 x 10^5 CFU/mL. Growth assays were carried out by pipetting 3 μL compound dissolved in DMSO, 100 μL cell suspension and 97 μL 2 x RPMI media (20.8 g/L RPMI-1640 (Sigma-Aldrich catalog number R6504) 330 mM MOPS, 36 g/L glucose) into a microtiter plate and incubating for 24 h at 34°C, followed by OD measurement at 490 nm. The minimum inhibitory concentration (MIC) was defined as 50% growth inhibition of the microorganism as this measurement best represented the antifungal activity of the compounds. Standard errors were typically below 5%.

[2] = system: Candida albicans SC5314; experiment: Fungal growth inhibition, C. albicans SC5314; format: cell-based; conditions: MIC defined as 50% growth inhibition, 24 h, n = 3–6
From the text: as §1

[3] = system: Candida krusei ATCC 6258; experiment: Fungal growth inhibition, C. krusei; format: cell-based; conditions: Pichia kudriavzevii, ATCC6258; MIC defined as 50% growth inhibition, 24 h, n = 3–6
From the text: as §1

[4] = system: Candida glabrata ATCC 90030; experiment: Fungal growth inhibition, C. glabrata ATCC 90030; format: cell-based; conditions: Nakaseomyces glabratus, ATCC90030; MIC defined as 50% growth inhibition, 24 h, n = 3–6
From the text: as §1

[5] = system: Candida glabrata Cg003; experiment: microbe, parasite or virus in culture; format: cell-based; conditions: Nakaseomyces glabratus, CG003, 24 h, read-out: Growth inhibition MIC Candida glabrata Cg003
Experimental: as §1, with “Cg003 is a clinical isolate, characterized to be resistant to fluconazole and itraconazole due to overexpression of the multidrug resistance efflux pumps Cdr1p and Cdr2p.” left out, “nm.” for “nm. The minimum inhibitory concentration (MIC) was defined as 50% growth inhibition of the microorganism as this measurement best represented the antifungal activity of the compounds. Standard errors were typically below 5%.”

[6] = system: HepG2 cells; experiment: Hep G2 viability assay (XTT); format: cell-based, human; conditions: HepG2 proliferation, 72 h, XTT
Experimental: In each well of a 96 well tissue culture plate (Greiner, catalog number GR-655180) 10,000 human hepatocyte HepG2 cells (Sigma-Aldrich, catalog number 85011430) were plated in 200 μL growth media (EMEM (Sigma-Aldrich, catalog number M2279), 2 mM L-Glutamine (Biological Industries, catalog number 03-020-1B), 1% non-essential amino acids (Biosera, catalog number XC-E1154/100), 10% fetal bovine serum (Biological Industries, catalog number BI-04-007-1A)), and incubated overnight at 37°C and 5% CO2. The following day, fresh growth media plus 2 μL compound in DMSO was added. The plate was incubated for a further 72 h at 37°C and 5% CO2. The media was replaced with 100 μL freshly prepared 0.5 mg/mL XTT sodium salt solution (Sigma-Aldrich, catalog number X4251) in RPMI-1640 (Sigma-Aldrich, catalog number R7509) with 3.83 μg/mL phenazine methosulfate (Sigma-Aldrich, catalog number P9625) and incubated 2–3 h at 37°C and 5% CO2. The color reaction was measured on a Victor X5 plate reader (Perkin-Elmer) at OD450, and the half maximal effective concentration (EC50) was calculated indicating the potency of tetrahydrocarbazole derivatives to inhibit HepG2 cell growth. Tamoxifen (Sigma-Aldrich, catalog number 85256) was used as a positive control compound while DMSO served as a negative control.

[7] = system: C. albicans (SC5314) cells; experiment: Time-kill assay; format: cell-based, Candida albicans; conditions: AMB 0.54 μM, VRC 2.8 μM, 6 and 8 20 μM
Experimental: C. albicans (SC5314) cells (1 x 10^5 CFU/mL) were incubated in 10 mL RPMI-1640 media at 30°C with gentle agitation (150 rpm) in the presence of amphotericin B (0.5 μM), voriconazole (2.8 μM) or tetrahydrocarbazole compound (20 μM). At the indicated time points (0, 3, 6, and 24 h), a 100 μL aliquot was removed, serially diluted (10 fold) in saline (0.9% NaCl), and 30 μL aliquots were spread on YPD agar. CFU were counted after incubation at 30°C for 48 h. C. albicans cells treated with DMSO (1%, v/v) served as a control. 50 CFU/mL was selected as the lower limit of quantitation.

[8] = system: C. albicans cells; experiment: Post-antifungal effect determination; format: cell-based, Candida albicans; conditions: 1 h exposure of C. albicans; AMB 0.54 μM, VRC 2.8 μM, 6 and 8 20 μM
Experimental: The post-antifungal effect (PAFE) of antifungal drugs on C. albicans was determined as described by others, with modifications. Briefly, 2 × 10^6 CFU/mL C. albicans cells were incubated in 1 mL RPMI-1640 media for 1 h at 30°C with gentle agitation in the presence of amphotericin B (0.54 μM), voriconazole (2.8 μM) or tetrahydrocarbazole compound (20 μM). Cells were subsequently washed in RPMI media 3 times by centrifugation (3 minutes, 5,000 x g) and finally re-suspended in 1 mL fresh RPMI medium and incubated at 30°C for 24 h. At various time intervals, a 100 μL aliquot was removed, serially diluted (10-fold) in saline (0.9% NaCl), and 30 μL aliquots were spread on YPD agar. The agar plates were incubated at 30°C for 48 h and the number of CFU/mL of culture was determined. C. albicans cells treated with DMSO (1%, v/v) served as a control. The number of CFU/mL obtained at specified time intervals was plotted against time (h) following compound removal. An increase in the CFU/mL of culture signifies growth and multiplication of yeast cells. The duration required for the antifungal drug-treated cells to recover from the inhibitory effect of the drug as indicated by an increase in CFU/mL of culture is defined as the PAFE.

[9] = molecular target: T1, Saccharomyces cerevisiae Pma1 (Saccharomyces cerevisiae, UniProt P05030); experiment: ATP hydrolysis inhibition, S. cerevisiae Pma1; format: biochemical; conditions: ATP hydrolysis IC50 Saccharomyces cerevisiae Pma1, library hit compounds, n = 3
T1 construct: containing the full-length cDNA of the S. cerevisiae plasma membrane H^+-ATPase isoform PMA1; made in house; host or cells: Saccharomyces cerevisiae RS72
T1 sequence (P05030 whole entry, canonical isoform): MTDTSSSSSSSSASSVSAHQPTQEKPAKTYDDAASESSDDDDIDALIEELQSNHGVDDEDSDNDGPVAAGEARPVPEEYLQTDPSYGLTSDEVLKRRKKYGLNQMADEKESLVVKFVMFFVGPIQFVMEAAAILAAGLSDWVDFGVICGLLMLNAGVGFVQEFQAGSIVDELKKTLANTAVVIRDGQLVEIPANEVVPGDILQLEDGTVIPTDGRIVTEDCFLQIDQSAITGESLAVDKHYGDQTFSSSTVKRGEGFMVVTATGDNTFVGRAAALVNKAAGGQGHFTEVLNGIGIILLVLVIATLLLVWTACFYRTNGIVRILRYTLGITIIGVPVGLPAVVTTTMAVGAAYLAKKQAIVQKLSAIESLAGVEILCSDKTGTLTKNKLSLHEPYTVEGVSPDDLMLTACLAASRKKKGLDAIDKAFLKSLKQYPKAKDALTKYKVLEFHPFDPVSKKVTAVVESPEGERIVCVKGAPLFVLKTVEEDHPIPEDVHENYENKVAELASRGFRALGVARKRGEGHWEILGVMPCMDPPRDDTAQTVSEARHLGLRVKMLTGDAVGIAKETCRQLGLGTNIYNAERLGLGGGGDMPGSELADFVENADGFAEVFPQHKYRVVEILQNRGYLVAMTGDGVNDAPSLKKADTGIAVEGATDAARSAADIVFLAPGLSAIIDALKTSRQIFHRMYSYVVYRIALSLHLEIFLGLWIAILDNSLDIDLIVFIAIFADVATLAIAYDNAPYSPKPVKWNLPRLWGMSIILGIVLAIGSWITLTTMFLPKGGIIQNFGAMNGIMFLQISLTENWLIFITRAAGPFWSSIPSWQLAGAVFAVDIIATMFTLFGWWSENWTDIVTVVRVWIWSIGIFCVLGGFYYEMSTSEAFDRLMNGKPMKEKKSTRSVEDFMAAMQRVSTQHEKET
Experimental: The compound libraries were purchased from Enamine Ltd, Ukraine and Chembridge Corp, USA. Library screening was performed in 96 well plates format and each compound was screened in the ATP hydrolysis assay at a final concentration of 20 μM. DMSO was used to determine the maximal ATPase activity and a blank with ATP in absence of Pma1 protein was used to determine the level of spontaneous ATP hydrolysis and used to determine background level. The percentage of compound inhibition was evaluated by subtracting the blank from each data point and normalizing to maximal ATP hydrolysis activity. […] Pma1 inhibitory hit compounds (IC50 <20 μM) with antifungal activity on both S. cerevisiae and C. albicans (MIC <100 μM) were re-purchased and re-evaluated to confirm the potency and identity of the compound.
Plasma membranes containing Pma1 were isolated from Saccharomyces cerevisiae RS72 cells containing the full-length cDNA of the S. cerevisiae plasma membrane H^+-ATPase isoform PMA1 under control of the PMA1 promoter as described.
ATPase activity was determined by measuring the amount of liberated phosphate from ATP hydrolysis. The ATPase assay was performed in 96 well plates in a final reaction volume of 60 μL. 0.1–0.2 μg/well of DOC extracted SERCA membrane or the Na^+,K^+-ATPase was used, while 1–2.5 μg/well was used of the Pma1 membrane preparation. Reactions, including protein membrane preparation and various concentrations of exogenously added compounds, were conducted in the following buffers; Pma1 buffer: 17.5 mM MOPS-NaOH pH 7, 7 mM MgSO4, 44 mM KNO3 (vacuolar ATPase inhibitor), 22 mM NaN3 (mitochondrial ATPase inhibitor), 0.22 mM Na2MoO4 (acid phosphatase inhibitor); SERCA buffer: 9 mM MOPS-NaOH pH 7, 2.7 mM MgCl2, 0.1 mM CaCl2 and 72 mM KCl. Na^+,K^+-ATPase buffer: 30 mM MOPS-NaOH pH 7, 40 mM NaCl, 4 mM MgCl2 and 20 mM KCl. Reactions were initiated by the addition of Na-ATP to a final concentration of 2.5 mM (Pma1 and Na^+,K^+-ATPase) or 5 mM (SERCA), followed by 30 minutes incubation at 30°C. […] Absorption was measured at 860 nm after additional 30 minutes incubation at RT.

[10] = system: Saccharomyces cerevisiae; experiment: Fungal growth inhibition, S. cerevisiae (library hits, Table A); format: cell-based; conditions: MIC defined as 50% growth inhibition, n = 3, baker's yeast
Experimental: (§2) The compound libraries were purchased from Enamine Ltd, Ukraine and Chembridge Corp, USA. Library screening was performed in 96 well plates format and each compound was screened in the ATP hydrolysis assay at a final concentration of 20 μM. DMSO was used to determine the maximal ATPase activity and a blank with ATP in absence of Pma1 protein was used to determine the level of spontaneous ATP hydrolysis and used to determine background level. The percentage of compound inhibition was evaluated by subtracting the blank from each data point and normalizing to maximal ATP hydrolysis activity.
as §1, with “Cg003 is a clinical isolate, characterized to be resistant to fluconazole and itraconazole due to overexpression of the multidrug resistance efflux pumps Cdr1p and Cdr2p.” left out, “nm.” for “nm. The minimum inhibitory concentration (MIC) was defined as 50% growth inhibition of the microorganism as this measurement best represented the antifungal activity of the compounds. Standard errors were typically below 5%.”

[11] = system: Candida albicans; experiment: Fungal growth inhibition, C. albicans (library hits, Tables A and B); format: cell-based; conditions: ATCC90028, read-out: Growth inhibition MIC Candida albicans
Experimental: as §2
as §1, with “Cg003 is a clinical isolate, characterized to be resistant to fluconazole and itraconazole due to overexpression of the multidrug resistance efflux pumps Cdr1p and Cdr2p.” left out, “nm.” for “nm. The minimum inhibitory concentration (MIC) was defined as 50% growth inhibition of the microorganism as this measurement best represented the antifungal activity of the compounds. Standard errors were typically below 5%.”

[12] = system: HEK293 cells expressing the familial Alzheimer’s disease (FAD)-linked presenilin 1 mutation; parameters: method as in PMID 25514752; conditions: HEK293 cells expressing FAD-linked presenilin 1 mutation; cited from earlier work

Row | SMILES | MIC [1] | MIC [2] | MIC [3] | MIC [4] | MIC [5] | EC50 [6] | EC50 ([6]; Homo sapiens, HepG2, 72 h) | Fungicidal or fungistatic activity in time-kill (in words) [7] | Post-antifungal effect (PAFE) [8] | IC50 [9] | MIC [10] | MIC [11] | Effect on enhanced calcium release from the endoplasmic reticulum (in words) [12] | EC50 ([6]; Homo sapiens)
1 | C[C@@H]1[C@H](O)[C@@H](C)/C=C/C=C/C=C/C=C/C=C/C=C/C=C/[C@H](O[C@@H]2O[C@H](C)[C@@H](O)[C@H](N)[C@@H]2O)C[C@@H]2O[C@](O)(C[C@@H](O)C[C@@H](O)[C@H](O)CC[C@@H](O)C[C@@H](O)CC(=O)O[C@H]1C)C[C@H](O)[C@H]2C(=O)O [AMB, amphotericin B, reference compound] | 0.02 ± 0.01 µM (≈ 0.0185 µg/mL) | 0.1 ± 0.04 µM (≈ 0.0924 µg/mL) | 0.44 ± 0.34 µM (≈ 0.407 µg/mL) | 0.1 ± 0.04 µM (≈ 0.0924 µg/mL) | 0.18 ± 0.08 µM (≈ 0.166 µg/mL) | 0.69 ± 0.01 µM | < 1 µM | fungicidal after 3 h exposure | 7 h |  |  |  |  | 
2 | Brc1ccc2[nH]c3c(c2c1)CCCC3NCCc1ccccc1 (stereo not shown) [Compound 1] |  |  |  |  |  |  |  |  |  | 18.2 ± 4.7 µM | 10 µM (≈ 3.69 µg/mL) | 20 µM (≈ 7.39 µg/mL) | reduce the enhanced calcium release | 
3 | Brc1ccc2[nH]c3c(c2c1)CCCC3NCc1ccccc1 (stereo not shown) [Compound 2] |  |  |  |  |  |  |  |  |  | 12.9 ± 3.2 µM | 12 µM (≈ 4.26 µg/mL) | 10 µM (≈ 3.55 µg/mL) | reduce the enhanced calcium release | 
4 | Cc1ccc2[nH]c3c(c2c1)CCCC3NCc1ccc(Cl)cc1 (stereo not shown) [Compound 3] |  |  |  |  |  |  |  |  |  | 14.8 ± 3.5 µM | 12 µM (≈ 3.9 µg/mL) | 5 µM (≈ 1.62 µg/mL) |  | 
5 | OC(Cn1cncn1)(Cn1cncn1)c1ccc(F)cc1F [FLC, fluconazole, reference compound] | 20.7 ± 8.68 µM (≈ 6.33 µg/mL) | 0.75 ± 0.48 µM (≈ 0.23 µg/mL) | 67.2 ± 27 µM (≈ 20.6 µg/mL) | 26.1 µM (≈ 8 µg/mL) | > 208 µM |  |  |  |  |  |  |  |  | > 50 µM
6 | C[C@@H](c1ncncc1F)[C@](O)(Cn1cncn1)c1ccc(F)cc1F [VRC, voriconazole, reference compound] | 0.27 ± 0.19 µM (≈ 0.0943 µg/mL) | 0.03 ± 0.02 µM (≈ 0.0105 µg/mL) | 1.02 ± 0.7 µM (≈ 0.356 µg/mL) | 0.61 ± 0.28 µM (≈ 0.213 µg/mL) | 6.11 ± 2.64 µM (≈ 2.13 µg/mL) |  |  | fungistatic activity after both 3 and 24 h of incubation | no significant delay in growth |  |  |  |  | > 50 µM
